Measurements taken from patent publication US5530128A, “N-sulphonylamino derivatives of dipetide compounds as metalloproteinase inhibitors” (Celltech Therapeutics Limited, priority 1992, dated 1996).

Legend:
Type in all cases: biochemical
Collagenase = target: T1, Collagenase (Homo sapiens, UniProt P03956); assay: Enzyme inhibition assay (fluorimetric, peptide substrate Dnp-Pro-Leu-Gly-Trp-Ala-D-Arg-NH2), collagenase; details: Ki (app) assumed to approximate to the true Ki; pH 7.5, overnight
T1 sequence (P03956 100-469): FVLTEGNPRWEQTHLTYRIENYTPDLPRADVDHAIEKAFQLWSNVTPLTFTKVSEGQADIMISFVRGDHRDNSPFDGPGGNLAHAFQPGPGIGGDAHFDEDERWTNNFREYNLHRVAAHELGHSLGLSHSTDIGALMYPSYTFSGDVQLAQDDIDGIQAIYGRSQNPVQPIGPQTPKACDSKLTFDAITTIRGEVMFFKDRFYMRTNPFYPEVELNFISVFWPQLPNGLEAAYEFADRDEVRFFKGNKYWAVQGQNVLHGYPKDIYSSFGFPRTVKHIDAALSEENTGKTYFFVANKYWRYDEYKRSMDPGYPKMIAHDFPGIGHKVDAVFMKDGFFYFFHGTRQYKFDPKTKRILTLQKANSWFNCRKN
Procedure: (§1) The activity and selectivity of the compounds of the invention may be determined as described below. All enzyme assays to determine Ki values were performed using the peptide substrate […]. [M. Sharon Stock and Rober D. Gray, JBC 264, 4277-81, 1989]. The enzymes cleave at the Gly-Leu bond which can be followed fluorimetrically by measuring the increase in Trp fluorescence emission associated with the removal of the quenching dinitrophenol (Dnp) group. […] Brij 35 at either room temperature or 37° C. depending on the enzyme. The reaction is stopped by adjusting the pH to 4 using 0.1M sodium acetate buffer and the fluorescence read at an excitation wavelength of 280 nm and emission wavelength of 346 nm. […] For stromelysin and collagenase, Ki (app) was assumed to approximate to the true Ki as [S]<<Km for the substrate hydrolysis. For gelatinase the Ki was determined by performing the analyses at several substrate concentrations. A plot of Ki (app) vs. [S] then gave the true Ki as the value of the y-axis intercept.

Stromelysin-1 = Stromelysin-1 (Homo sapiens, UniProt P08254); assay: Enzyme inhibition assay (fluorimetric, peptide substrate Dnp-Pro-Leu-Gly-Trp-Ala-D-Arg-NH2), stromelysin; details: Ki (app) assumed to approximate to the true Ki; pH 7.5, overnight
Procedure: as §1

Gelatinase 72KD = target: T2, Gelatinase 72KD (Homo sapiens, UniProt P08253); assay: Enzyme inhibition assay (fluorimetric, peptide substrate Dnp-Pro-Leu-Gly-Trp-Ala-D-Arg-NH2), gelatinase; details: true Ki from plot of Ki (app) vs. [S]; pH 7.5, overnight
T2 sequence (P08253 110-660): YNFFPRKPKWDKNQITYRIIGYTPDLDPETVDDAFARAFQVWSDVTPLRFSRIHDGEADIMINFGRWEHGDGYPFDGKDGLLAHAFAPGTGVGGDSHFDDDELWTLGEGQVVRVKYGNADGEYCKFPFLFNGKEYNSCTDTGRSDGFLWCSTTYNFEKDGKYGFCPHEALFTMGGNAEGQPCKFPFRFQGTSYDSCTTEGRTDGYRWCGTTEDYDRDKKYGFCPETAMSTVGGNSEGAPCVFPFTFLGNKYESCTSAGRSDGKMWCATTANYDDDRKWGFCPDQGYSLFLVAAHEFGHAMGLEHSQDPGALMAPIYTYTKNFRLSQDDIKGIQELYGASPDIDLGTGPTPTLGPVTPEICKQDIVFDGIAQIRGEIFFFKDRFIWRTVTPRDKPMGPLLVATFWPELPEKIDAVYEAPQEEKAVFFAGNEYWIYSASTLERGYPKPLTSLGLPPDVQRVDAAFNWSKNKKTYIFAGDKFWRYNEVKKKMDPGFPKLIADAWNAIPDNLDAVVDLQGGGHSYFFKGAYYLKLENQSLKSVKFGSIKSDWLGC
Procedure: as §1

Sequence of Stromelysin-1 (P08254 100-477, species assumed): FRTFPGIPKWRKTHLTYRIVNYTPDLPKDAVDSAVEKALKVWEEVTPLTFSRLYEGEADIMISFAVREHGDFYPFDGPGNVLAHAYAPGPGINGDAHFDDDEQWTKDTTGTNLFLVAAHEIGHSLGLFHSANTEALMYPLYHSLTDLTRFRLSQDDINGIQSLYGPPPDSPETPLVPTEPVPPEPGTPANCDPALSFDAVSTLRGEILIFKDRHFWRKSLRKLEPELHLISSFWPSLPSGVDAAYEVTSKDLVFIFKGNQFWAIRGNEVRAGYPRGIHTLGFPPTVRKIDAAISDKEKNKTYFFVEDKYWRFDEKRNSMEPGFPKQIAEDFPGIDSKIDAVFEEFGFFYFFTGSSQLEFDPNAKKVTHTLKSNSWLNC

Ki (Collagenase) | Ki (Stromelysin-1) | Ki (Gelatinase 72KD) | SMILES
100000 nM | 802 nM | 1.43 nM | Cc1ccc(CCC[C@H](CC(=O)O)C(=O)N[C@@H](CC2CCCCC2)C(=O)NCCNS(=O)(=O)N2CCOCC2)cc1 [Example 2, {4-Hydroxy-2-(R)-[3-(4-methylphenyl)propyl]succinyl}-L-β-cyclohexylalanine-N-[(2-morpholinesulphonylamino)ethyl]amide]
302 nM | 1.73 nM | 0.014 nM | O=C(C[C@@H](CCCc1ccc(Cl)cc1)C(=O)N[C@@H](CC1CCCCC1)C(=O)NCCNS(=O)(=O)N1CCOCC1)NO [Example 4, {4-(N-Hydroxyamino)-2(R)-[3-(4-chlorophenyl)propyl]succinyl}-L-β-cyclohexylalanine-N-[(2-morpholinesulphonylamino)ethyl]amide]
385 nM | 2.75 nM | – | Cc1ccc(CCC[C@H](CC(=O)NO)C(=O)N[C@@H](CC2CCCCC2)C(=O)NCCNS(=O)(=O)N2CCOCC2)cc1 [Example 3, {4-(N-Hydroxyamino)-2(R)-[3-(4-methylphenyl)propyl]succinyl}-L-β-cyclohexylalanine-N-[(2-morpholinesulphonylamino)ethyl]amide]
554 nM | 18.7 nM | 0.047 nM | Cc1ccc(CCC[C@H](CC(=O)NO)C(=O)N[C@@H](CC2=CCCCC2)C(=O)NCCNS(=O)(=O)N2CCOCC2)cc1 [Example 5, {4-(N-Hydroxyamino)-2(R)-[3-(4-methylphenyl)propyl]succinyl}-L-β-(1-cyclohexenylalanine)-N-[(2-morpholinesphonylamino)ethyl]amide]
800 nM | 6.8 nM | – | Cc1ccc(CCC[C@H](CC(=O)NO)C(=O)N[C@@H](CC2CCCCC2)C(=O)NCCCNS(=O)(=O)N(C)C)cc1 [Example 6]
